According to paper PMC4366722 (Iranian Journal of Basic Medical Sciences, 2015):
Entries after “also recorded” stand apart in the source; their conditions may differ.

Tests used:
[1] = test system: Melanoma cell lines (NCBI Code: C136; human skin); test: Cytotoxicity assay; type: cell-based; settings: melanoma cells, 24 hr, MTT
mushroom tyrosinase = test: Diphenolase; type: biochemical; settings: diphenolase activity

| Inhibition (reversibility) (mushroom tyrosinase) | Inhibition type (mushroom tyrosinase) | SMILES | effect on melanoma cell viability / cytotoxicity (in words) [1] |
| --- | --- | --- | --- |
| reversibly | noncompetitive | Nc1ccc(C(=O)O)cc1 [4-amino benzoic acid] | no significant change |
| reversibly | competitive | O=C(O)c1cccnc1 [Nicotinic acid, nicotinic acid] | declined remarkably; also recorded: cytotoxic effects |
| reversibly | competitive | O=C(O)c1ccccn1 [Picolinic acid, picolinic acid] | declined remarkably; also recorded: cytotoxic effects |

| SMILES | Inhibition (reversibility) (mushroom tyrosinase) | Inhibition type (mushroom tyrosinase) | effect on melanoma cell viability / cytotoxicity (in words) [1] |
| --- | --- | --- | --- |
| Nc1ccccc1C(=O)O [2-amino benzoic acid] | reversibly | noncompetitive | no significant change |
